Measurements reported in the supplement of paper PMC6723410.

The molecules below were run on GUMC-403 (assay: viability at highest tested concentration (max response) relative to DMSO (% of DMSO control); higher = less cytotoxic). Details: library / dose series: MIPE library, 11-point 1:3 dilution; top concentration 46.1 µM; 48 h.
Summary of the method: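 Plates of 1536 wells were seeded with 700 patient-derived GUMC-403 papilloma cells per well, grown by conditional reprogramming, in 5 μL F + Y medium and kept overnight at 37 °C. Compounds followed at 23 nL by pin tool over an 11-point 1:3 series, for 48 h. After a CellTiter-Glo luminescence read on a ViewLux, signals were set against vehicle wells as 100% and empty wells as 0%. The reported number is viability at the highest tested concentration relative to vehicle control.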

SMILES	viability
CN1CCCN=C1/C=C/c1cccs1.O=C(O)c1cc2ccccc2c(Cc2c(O)c(C(=O)O)cc3ccccc23)c1O	79.8
Cc1cc(C[S+](=O)([O-])c2ccccc2)cc(OCc2ccc(CN3CCC[C@@H]3CO)cc2)c1	116
Cc1nc(C(=O)NCC(=O)O)c(O)c2ccc(Oc3ccccc3)cc12	132
COc1nc(-c2ccc3c(c2)OCO3)n(-c2ccc(NC(=O)CSc3ccccc3)cc2)n1	101
CCOC(CN1C(=O)[C@](CC(=O)Nc2ccc(C)cc2)(NC(=O)Nc2ccc(C)cc2)c2ccccc21)OCC	129
C#C[C@]1(O)CC[C@H]2[C@@H]3CCc4cc(O)ccc4[C@H]3CC[C@@]21C	74.3
CC[C@@H]1/C=C(\C)C[C@H](C)C[C@H](OC)[C@H]2O[C@@](O)(C(=O)C(=O)N3CCCC[C@H]3C(=O)O[C@H](/C(C)=C/[C@@H]3CC[C@H](Cl)[C@H](OC)C3)[C@H](C)[C@@H](O)CC1=O)[C@H](C)C[C@@H]2OC	63.6
O=C(Nc1nnc(-c2ccco2)o1)c1cc(-c2ccccc2)nc2ccccc12	89.1
OC1=C(O)C2=C(\C=C/C(=O)O2)C=C1	110
CC(NC(C)(C)C)C(=O)c1cccc(Cl)c1 (centres undefined)	127
O=C(O)CCNc1cc(N2CCc3ccccc3CC2)nc(-c2ccccn2)n1	125
CC1OC(OC/2=C(/OC3=C(C(=CC(=C3)O)O)C2=O)C4=CC=C(O)C=C4)C(O)C(OC(C)=O)C1OC(C)=O (centres undefined)	116
C[C@](N)(Cc1ccc(O)c(O)c1)C(=O)O	89.6
Cc1c(C)n(Cc2ccc(-c3ccccc3C(=O)O)cc2)c2ccc(C(=O)N[C@@H](C)c3ccc([N+](=O)[O-])cc3)cc12	102
COc1cc2nc(N3CCCN(C)CC3)nc(NC3CCN(Cc4ccccc4)CC3)c2cc1OC	13.6
COc1ccccc1OCC(O)COC(N)=O (centres undefined)	117
C[S+](=O)([O-])Nc1ccc([N+](=O)[O-])cc1Oc1ccccc1	113
COC1=CC=C(C=C1O)C/2=C/C(=O)C3=C(O2)C=C(O[C@@H]4O[C@H](CO[C@@H]5O[C@@H](C)[C@H](O)[C@@H](O)[C@H]5O)[C@@H](O)[C@H](O)[C@H]4O)C=C3O	117
N\C1=N\C2=C(N=C[N]2COCCO)C(=O)N1	117

SMILES	viability
CN1\C(=C(O)/C2=C(C=C(Cl)S2)[S+]1([O-])=O)C(=O)NC3=NC=CC=C3	67.8
C1CN\2C[C@@H](\N=C2S1)C3=CC=CC=C3	125
CCNC(=O)C[C@H]1/N=C(/C2=CC=C(Cl)C=C2)C3=CC(=CC=C3[N]4C(=NN=C14)C)OC	93.5
COc1cc(C(C)=O)ccc1OCCCN1CCC(c2noc3cc(F)ccc23)CC1	102
CN1\C(=C(\O)C2=CC=CC=C2[S+]1([O-])=O)C(=O)NC3=NC=C(C)S3	121
CC1(C)CC\C2=C(/O1)C3=C(C=CC=C3)C(=O)C2=O	123
CC(C)(O)CC(=O)NCCn1ccc2ncnc(Nc3ccc(Oc4cccc(C(F)(F)F)c4)c(Cl)c3)c21	71.7
FC(F)(F)c1ccc(Nc2nc3cc(Oc4ccnc(-c5ncc(C(F)(F)F)[nH]5)c4)ccc3[nH]2)cc1	97.7
CO/N=C(\C(=O)N[C@@H]1C(=O)N2C(C(=O)OCOC(=O)C(C)(C)C)=C(/C=C\c3scnc3C)CS[C@H]12)c1csc(N)n1	137
O=C(c1cncc(Br)c1)N1CCC(N2CCCC2)CC1	115
O=C(Oc1ccc([N+](=O)[O-])cc1)N1CCC(C(O)(c2ccc3c(c2)OCO3)c2ccc3c(c2)OCO3)CC1	105
COc1cc(C(=O)NS(=O)(=O)c2ccccc2C)ccc1Cc1cn(C)c2ccc(NC(=O)OC3CCCC3)cc12	28.5
CCOc1cc(C(=O)Nc2ccc(Cl)c(-c3nc4ccccc4[nH]3)c2)cc(OCC)c1OCC	90.5
NC(=O)c1cccc2nc(-c3ccc([C@H]4CCCN4)cc3F)[nH]c12	116
Oc1ccc2ccccc2c1SSc1c(O)ccc2ccccc12	129
O=C(Nc1cccc2c(=O)cc(-c3nnn[nH]3)oc12)c1ccc(OCCCCc2ccccc2)cc1	87
COc1ccc2c(c1OC)CN1CCc3cc4c(cc3C1C2)OCO4 (centres undefined)	121
CN1\C=N/C2=CC=C(NC3=CC(=CC=C3C)NC(=O)C4=CC(=CC=C4)C(C)(C)C#N)C=C2C1=O	96.2
O=C(CCCCCCC(=O)Nc1cccnc1)NO	111

Same assay, conditions: library / dose series: MIPE library, 11-point 1:3 dilution; top concentration 92.2 µM; 48 h

SMILES	viability
COc1cc(/C=C/C(=O)CC(=O)/C=C/c2ccc(O)c(OC)c2)ccc1O	94.4
